5 compounds from article PMC7288168, “Synthesis and Cytotoxic Activity of Chiral Sulfonamides Based on the 2-Azabicycloalkane Skeleton” (Molecules, 2020) can be followed below.

Each structure is given as a SMILES string.

Series [1] concerns HUVEC cells. As to the kind of experiment: Neutral red cell viability assay, HUVEC (Table 1). In kind it is cell-based. The following applies: Table 1, nonmalignant primary cells, 24 h. On the procedure: (§1) The human hepatocellular carcinoma (HCC) cell line HUH7 was purchased from ATCC (LGC standards GmbH, Wesel, Germany). The Austrian human HCC cell line AKH12 has been well characterized and was kindly provided by Prof. Bettina Grasl-Kraupp. HUH7 cells were cultured in Dulbecco’s modified Eagle’s medium (Thermo Fisher Scientific, Waltham, MA, USA) containing 10% heat-inactivated fetal bovine serum (FBS) (Sigma-Aldrich, St. Louis, MO, USA), 1% penicillin-streptomycin (10,000 U/mL) (Thermo Fisher Scientific, Waltham, MA, USA), and 1% minimum essential medium nonessential amino acids (100x) (Thermo Fisher Scientific, Waltham, MA, USA). AKH12 cells were cultured in RPMI1640 medium (Sigma-Aldrich, St. Louis, MO, USA) containing 10% heat-inactivated FBS. DAOY and D283Med (short D283) medulloblastoma (MB) cells were purchased from ATCC (LGC standards GmbH, Wesel, Germany). D425Med (short D425) and UW228-2 were provided by Thomas Ströbel from the Institute of Neurology Medical University of Vienna. The cells were cultured in Dulbecco’s modified Eagle’s medium (Sigma-Aldrich, St. Louis, MO, USA) containing 10% FBS (Sigma-Aldrich, St. Louis, MO, USA), 2% L-Glutamine (Sigma-Aldrich, St. Louis, MO, USA), and 0.2% Normocin (Sigma-Aldrich, St. Louis, MO, USA). U-251 MG (short U251) glioblastoma (GBM) cell line was purchased from Sigma-Aldrich and cultured in Dulbecco’s modified Eagle’s medium (Sigma-Aldrich, St. Louis, MO, USA) containing 10% FBS (Sigma-Aldrich, St. Louis, MO, USA), 2% L-Glutamine (Sigma-Aldrich, St. Louis, MO, USA), and 0.2% Normocin (Sigma-Aldrich, St. Louis, Missouri, USA). Human umbilical vein endothelial cells (HUVECs) were provided by Brigitte Winter from the Department of Surgery Medical University of Vienna and were grown in endothelial cell growth medium-2 BulletKitTM (Lonza, Basel, Switzerland) under standard tissue culture conditions. All cells were incubated at 37 °C in a 5% CO2 atmosphere and regularly checked for mycoplasma contamination.
(§2) Cell viability was determined using a neutral red assay, as previously described. The cells were placed in 24-well plates and grown to reach 70–80% confluency prior to treatment. After treatment for 24 h, cells were incubated with neutral red at a concentration of 50 µg/mL in serum-free medium for 2 h at 37 °C. Cells were then washed 2x and incubated with 1% acetic acid in 70% ethanol. The dye concentration was measured photometrically at 562 nm. The percentage of survival was calculated considering DMSO-treated (indicated as 0 µM concentration) cells as 100% control.
(§3) LD50 was defined as the amount of a toxic agent required to eliminate 50% of the cell population. The LD50 was calculated in each experiment from the respective dose–response curve. All experiments were performed in triplicate wells.

In series [2] the test system is U251 cells. As to the kind of experiment: Neutral red cell viability assay, U251. It counts as cell-based, human. The following applies: for decrease of cell viability, U251: 50 µM, 24 h, first screening; for IC50: Homo sapiens, U-251, 24 h treatment, neutral red, read-out: LD50 U251 (GBM). On the procedure:
as §1, §2, §3

Series [3] has as its system DAOY cells. As to the kind of experiment: Neutral red cell viability assay, DAOY. In kind it is cell-based, human. The conditions noted are these: for reduction of cell viability, DAOY: 50 µM, 24 h, first screening; for IC50: Homo sapiens, Daoy, 24 h treatment, neutral red, read-out: LD50 DAOY (MB). On the procedure: as §1, §2, §3
Series [4] has as its system D425 cells. As to the kind of experiment: Cell viability assay (suspension cell line), MTT/CellTiter Blue, D425. It counts as cell-based, human. The conditions noted are these: for reduction of cell viability, D425: 50 µM, 24 h, first screening; for IC50: Homo sapiens, read-out: LD50 D425 (MB); for HUVEC/D425 LD50 Fold Change: ratio of LD50 HUVEC to LD50 D425; for D425 cell viability as compared to HUVEC cells: dose-response 24 h, Student's t-test, p ≤0.05 / p ≤0.01. Here is the method: as §1, §3
(§4) One day before treatment, 2 × 10^4 of D425Med or HUVEC cells were seeded into 24-well plates and incubated at 37 °C in a humidified atmosphere containing 5% CO2.The cells were treated with different compounds for 24 h. A […] assay using the CellTiter Blue reagent (Promega, Fitchburg, Wisconsin, USA) was performed according to the manufacturer’s protocol. Experiments were performed in triplicate and repeated three times. The percentage of survival was calculated as the ratio using DMSO-treated (indicated as 0 µM concentration) cells as 100% control.

The test system of series [5] is UW228-2 cells. As to the kind of experiment: Neutral red cell viability assay, UW228-2. In kind it is cell-based, human. The following applies: for reduction of cell viability, UW228-2: 50 µM, 24 h, first screening; for IC50: Homo sapiens, UW228-2, 24 h treatment, neutral red, read-out: LD50 UW228-2 (MB). On the procedure:
as §1, §2, §3

Series [6] deals with AKH12 cells. As to the kind of experiment: Neutral red cell viability assay, AKH12. It counts as cell-based, human. The following applies: for reduction of cell viability, AKH12: 50 µM, 24 h, first screening; for IC50: Homo sapiens, 24 h treatment, neutral red, read-out: LD50 AKH12 (HCC). On the procedure:
as §1, §2, §3

Series [7] concerns HUVEC cells. As to the kind of experiment: Cell viability assay MTT/CellTiter Blue, HUVEC (Table 2). In kind it is cell-based. The conditions noted are these: Table 2, nonmalignant primary cells, 24 h, assay as for D425. Here is the method:
as §1, §3, §4

Series [8] concerns HUH7 cells. Put plainly: Neutral red cell viability assay, HUH7. It counts as cell-based, human. The conditions noted are these: Homo sapiens, Huh-7; 24 h treatment, neutral red; read-out: LD50 HUH7 (HCC). On the procedure:
as §1, §2, §3

The test system of series [9] is D283 cells. As to the kind of experiment: Neutral red cell viability assay, D283. In kind it is cell-based, human. The conditions noted are these: for reduction of cell viability, D283: 50 µM, 24 h, first screening; for IC50: Homo sapiens, D283, 24 h treatment, read-out: LD50 D283 (MB). On the procedure:
as §1, §2, §3

The mark [10] stands for this setting: 24 h treatment, suspension cell assay.

On to `CC(c1ccccc1)N1C2CCC(C2)C1CNS(=O)(=O)c1ccc(-c2ccccc2)cc1` (centres unmarked) [Compound 10a], for which the “LD50 HUVEC” value in [1] amounted to 11.58 ± 1.11 µM; in series [7], 28 ± 1.86 µM. Besides, the “decrease of cell viability, U251” value in series [2] is reported as “more than 50%”. Besides, the IC50 in series [2] came to 13.5 ± 0.9 µM; in series [3] it was 16 ± 1.12 µM; in series [4] (setting [10]) it was 16.7 ± 2.11 µM; in [5], 28.8 ± 2.1 µM; in series [6], 15.5 ± 1.3 µM; in [8], 13.9 ± 1.02 µM. Moreover, the IC50 in series [9] is 17.7 ± 1.09 µM. The “reduction of cell viability, DAOY” value in [3] is on record as “reduced cell viability”. Also, the “reduction of cell viability, D425” value in series [4] is “reduced cell viability”. The “HUVEC/D425 LD50 Fold Change” value in series [4] is 1.67. Besides, the “reduction of cell viability, UW228-2” value in [5] is “reduced cell viability”. Moreover, the “reduction of cell viability, AKH12” value in [6] was “reduced cell viability below LD50”. Also, the “reduction of cell viability, D283” value in [9] is recorded as “reduced cell viability”.
On to `CC(c1ccccc1)N1C2CCC(C2)C1CNS(=O)(=O)c1cc(C(F)(F)F)cc(C(F)(F)F)c1` [Compound 10g, 3,5-Bis(trifluoromethyl)-N-((2-((S)-1-phenylethyl)-(1S,3R,4R)-2-azabicyclo[2.2.1]heptane-3-yl)benzenesulfonamide], for which, in [1], the “LD50 HUVEC” value was determined as 10.77 ± 0.93 µM. Moreover, in [2], the “decrease of cell viability, U251” value is given as “more than 50%” and the IC50 was found to be 11.8 ± 1.58 µM. In series [3], the “reduction of cell viability, DAOY” value is on record as “reduced cell viability” and the IC50 was determined as 19.2 ± 1.42 µM. In series [4], the “reduction of cell viability, D425” value is “reduced cell viability”; the “D425 cell viability as compared to HUVEC cells” value is on record as “significantly reduced D425 cell viability as compared to HUVEC cells”; the “HUVEC/D425 LD50 Fold Change” value is on record as 2.66. For the same compound, in series [4] (setting [10]), the “LD50 D425 (MB)” value is recorded as 6.61 ± 1.52 µM and the IC50 is 6.61 µM. Also, in series [5], the “reduction of cell viability, UW228-2” value is recorded as “reduced cell viability” and the IC50 was 12 ± 0.99 µM. Also, in series [6], the “reduction of cell viability, AKH12” value is reported as “reduced cell viability below LD50” and the IC50 is 10.2 ± 1.09 µM. In addition, the “LD50 HUVEC” value in series [7] came out at 17.62 ± 2.98 µM. In addition, in [8], the IC50 amounted to 11.7 ± 1.53 µM. In addition, in series [9], the “reduction of cell viability, D283” value is reported as “reduced cell viability” and the IC50 was 16 ± 1 µM.
Turning to `CC(c1ccccc1)N1C2CCC(C2)C1CNS(=O)(=O)c1ccc(C(F)(F)F)cc1` [Compound 10f, 4-Trifluoromethyl-N-((2-((S)-1-phenylethyl)-(1S,3R,4R)-2-azabicyclo[2.2.1]heptane-3-yl)benzenesulfonamide], the “LD50 HUVEC” value in [1] worked out at 17.26 ± 2.33 µM; in series [7] it was 23.15 ± 2.21 µM. For the same compound, in [2], the “decrease of cell viability, U251” value is on record as “more than 50%”. Besides, the IC50 in [2] was 32.7 ± 1.32 µM; in series [3], 15.8 ± 1.09 µM; in [4] (setting [10]) it was 20.2 ± 0.79 µM; in series [5] it was 28 ± 2.09 µM; in series [6], 24.7 ± 1.98 µM; in series [8] it was 24.6 ± 1.54 µM. In addition, in series [9], the IC50 was 18.8 ± 1.22 µM. In addition, in series [3], the “reduction of cell viability, DAOY” value is on record as “reduced cell viability”. Also, in series [4], the “reduction of cell viability, D425” value is reported as “reduced cell viability”. In addition, in series [4], the “HUVEC/D425 LD50 Fold Change” value was determined as 1.14. For the same compound, the “reduction of cell viability, UW228-2” value in series [5] is “reduced cell viability”. Moreover, the “reduction of cell viability, AKH12” value in series [6] was “reduced cell viability below LD50”. Further, in series [9], the “reduction of cell viability, D283” value is given as “reduced cell viability”.
As to `CC(c1ccccc1)N1CC(NS(=O)(=O)c2ccc(-c3ccccc3)cc2)C2CCC1C2` [Compound 11a, 4-Phenyl-N-((2-((S)-1-phenylethyl)-(1S,4S,5R)-2-azabicyclo[3.2.1]octan-4-yl)benzenesulfonamide], the results for the “LD50 HUVEC” value in series [1] and in [7] were 13.35 ± 0.25 µM and 21.71 ± 1.99 µM, respectively. The “decrease of cell viability, U251” value in [2] is “more than 50%”. For the same compound, the IC50 in series [2] amounted to 18.8 ± 2.11 µM; in series [3], 18.7 ± 1.88 µM; in series [4] (setting [10]), 21.4 ± 0.89 µM; in [5], 16 ± 1.03 µM; in series [6], 28.8 ± 1.53 µM; in [8] it was 22.5 ± 1.21 µM. For the same compound, in [9], the IC50 is 20 ± 2.02 µM. The “reduction of cell viability, DAOY” value in [3] is listed as “reduced cell viability”. For the same compound, in series [4], the “reduction of cell viability, D425” value is listed as “reduced cell viability”. For the same compound, the “HUVEC/D425 LD50 Fold Change” value in series [4] was determined as 1.01. Besides, in [5], the “reduction of cell viability, UW228-2” value is given as “reduced cell viability”. Besides, the “reduction of cell viability, AKH12” value in [6] is given as “reduced cell viability below LD50”. Also, the “reduction of cell viability, D283” value in [9] is “reduced cell viability”.
For `COc1ccc(-c2ccc(S(=O)(=O)NC3CN(C(C)c4ccccc4)C4CCC3C4)cc2)cc1` [Compound 11e, 4-(4-Methoxyphenyl)-N-((2-((S)-1-phenylethyl)-(1S,4S,5R)-2-azabicyclo[3.2.1]octan-4-yl)benzenesulfonamide], the “LD50 HUVEC” value in [1] is 17.58 ± 2.94 µM. Also, in series [2], the “decrease of cell viability, U251” value was “more than 50%” and the IC50 amounted to 23.7 ± 1.69 µM. In addition, in series [3], the “reduction of cell viability, DAOY” value was “reduced cell viability” and the IC50 was found to be 24 ± 1.49 µM. Moreover, in series [4], the “reduction of cell viability, D425” value was “reduced cell viability”; the “D425 cell viability as compared to HUVEC cells” value is reported as “significantly reduced D425 cell viability as compared to HUVEC cells”; the “HUVEC/D425 LD50 Fold Change” value is on record as 2.04. The IC50 in series [4] (setting [10]) worked out at 17.8 ± 1.04 µM. Further, in series [5], the “reduction of cell viability, UW228-2” value is “reduced cell viability” and the IC50 was 23.5 ± 1.56 µM. Also, in [6], the “reduction of cell viability, AKH12” value was “reduced cell viability below LD50” and the IC50 stood at 28 ± 1.39 µM. Moreover, in series [7], the “LD50 HUVEC” value turned out to be 36.38 ± 4.37 µM. The IC50 in series [8] came to 30.2 ± 2.21 µM. In series [9], the “reduction of cell viability, D283” value was “reduced cell viability” and the IC50 was determined as 25.9 ± 1.9 µM.
